Assays:
cyclin D1 = test: Cyclin D1 percentage degradation in Calu-1 cells (immunoblotting); assay type: cell-based; details: 16 hours
How it was run: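 Cyclin D1 degradation was assessed by western blot. Clarified lysates, obtained by RIPA lysis with inhibitors and centrifugation at 13,000 rpm, were normalized by BCA protein assay and separated by SDS-PAGE. Bands were detected with Western ECL Substrate on a Bio-Rad ChemiDoc MP Imaging system and quantified in Image Lab software to derive percentage degradation.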

CDK4 = target: T1, CDK4 (Homo sapiens, UniProt P11802); test: CDK4 percentage degradation in Calu-1 cells (immunoblotting); assay type: cell-based; details: Calu-1 cells, 16 hours; for inhibition at 10 µM: read-out: CDK4 Degradation (10 μM); for inhibition at 0.2 µM: 200 nM, read-out: CDK4 Degradation (200 nM)
T1 construct: endogenous in cells; host or cells: Calu-1
How it was run: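 CDK4 degradation was measured by immunoblotting. Cells were washed in cold PBS and lysed in RIPA buffer with inhibitors for 30 min at 4° C., then spun at 13,000 rpm to clear. After BCA protein determination, lysates were heated at 99° C. for 5 min in Laemmli buffer, resolved on SDS-PAGE, imaged on a ChemiDoc MP with ECL substrate, and band intensities quantified.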

T1 sequence (P11802 2-303 limits assumed): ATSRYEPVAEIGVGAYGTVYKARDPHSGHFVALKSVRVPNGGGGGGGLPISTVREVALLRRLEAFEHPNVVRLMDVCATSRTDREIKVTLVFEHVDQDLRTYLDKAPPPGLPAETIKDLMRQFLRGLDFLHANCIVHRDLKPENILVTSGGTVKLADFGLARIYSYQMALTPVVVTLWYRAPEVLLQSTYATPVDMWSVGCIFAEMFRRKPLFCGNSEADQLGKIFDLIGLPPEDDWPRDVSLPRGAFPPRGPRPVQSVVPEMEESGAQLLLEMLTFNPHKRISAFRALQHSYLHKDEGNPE
T1 sequence (P24385 whole entry partner): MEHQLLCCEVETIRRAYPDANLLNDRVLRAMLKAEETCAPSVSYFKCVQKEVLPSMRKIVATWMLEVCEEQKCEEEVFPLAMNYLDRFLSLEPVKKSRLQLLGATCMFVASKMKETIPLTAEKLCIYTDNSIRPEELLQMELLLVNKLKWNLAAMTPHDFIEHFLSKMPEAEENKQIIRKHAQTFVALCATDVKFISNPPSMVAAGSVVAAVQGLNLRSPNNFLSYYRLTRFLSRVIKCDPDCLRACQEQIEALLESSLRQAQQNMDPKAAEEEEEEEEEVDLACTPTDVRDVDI
T1 sequence (Q16531 2-1140 limits assumed, further chain): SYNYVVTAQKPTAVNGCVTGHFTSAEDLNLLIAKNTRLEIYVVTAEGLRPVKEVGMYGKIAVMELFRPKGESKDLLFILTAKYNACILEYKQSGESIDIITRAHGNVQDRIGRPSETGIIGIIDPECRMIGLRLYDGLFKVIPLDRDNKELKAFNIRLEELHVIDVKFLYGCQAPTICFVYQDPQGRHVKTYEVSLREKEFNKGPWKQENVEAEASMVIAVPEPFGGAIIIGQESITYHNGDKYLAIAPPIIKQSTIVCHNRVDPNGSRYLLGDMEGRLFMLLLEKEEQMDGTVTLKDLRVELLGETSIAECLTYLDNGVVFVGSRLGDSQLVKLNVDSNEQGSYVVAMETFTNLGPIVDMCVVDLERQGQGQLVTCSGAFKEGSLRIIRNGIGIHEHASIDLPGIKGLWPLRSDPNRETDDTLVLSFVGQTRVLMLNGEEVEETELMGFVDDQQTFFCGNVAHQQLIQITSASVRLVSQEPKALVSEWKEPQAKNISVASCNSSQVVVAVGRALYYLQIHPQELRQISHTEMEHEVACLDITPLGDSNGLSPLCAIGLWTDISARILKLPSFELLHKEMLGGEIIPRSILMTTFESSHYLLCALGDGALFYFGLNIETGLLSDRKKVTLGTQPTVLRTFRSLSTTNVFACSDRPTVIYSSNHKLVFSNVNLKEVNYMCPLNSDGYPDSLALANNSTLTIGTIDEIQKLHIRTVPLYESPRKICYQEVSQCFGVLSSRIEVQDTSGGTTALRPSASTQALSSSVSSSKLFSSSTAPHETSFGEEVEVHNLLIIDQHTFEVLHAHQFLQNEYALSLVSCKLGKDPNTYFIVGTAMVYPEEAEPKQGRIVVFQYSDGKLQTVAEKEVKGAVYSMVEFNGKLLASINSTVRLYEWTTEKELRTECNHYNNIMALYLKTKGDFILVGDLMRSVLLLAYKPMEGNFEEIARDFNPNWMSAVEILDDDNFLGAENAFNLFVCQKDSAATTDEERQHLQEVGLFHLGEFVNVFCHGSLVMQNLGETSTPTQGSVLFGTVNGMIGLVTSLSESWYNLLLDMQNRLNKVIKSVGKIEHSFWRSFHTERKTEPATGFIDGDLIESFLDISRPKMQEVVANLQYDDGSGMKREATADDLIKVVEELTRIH

inhibition at 10 µM (CDK4) [%] | inhibition at 0.2 µM (CDK4) [%] | SMILES | CyclinD1 Degradation (10 μM) (cyclin D1) | CyclinD1 Degradation (200 nM) (cyclin D1)
50 to 80 |  | Cc1nc(NC(=O)c2ccccc2NC(=O)CCCCNC(=O)CN2CCN(c3ccc(Nc4ncc5cc6n(c5n4)C4(CCCCC4)CNC6=O)nc3)CC2)sc1C [CPD-317, N-(4,5-Dimethylthiazol-2-yl)-2-(5-(2-(4-(6-((6′-oxo-7′,8′-dihydro-6′H-spiro[cyclohexane-1,9′-pyrazino[1′,2′:1,5]pyrrolo[2,3-d]pyrimidin]-2′-yl)amino)pyridin-3-yl)piperazin-1-yl)acetamido)pentanamido)benzamide] | A (protein percentage degradation >= 80%) | 
30 to 50 |  | Cc1nc(NC(=O)c2ccccc2NC(=O)CCCCCNC(=O)CN2CCN(c3ccc(Nc4ncc5cc6n(c5n4)C4(CCCCC4)CNC6=O)nc3)CC2)sc1C [CPD-318, N-(4,5-Dimethylthiazol-2-yl)-2-(6-(2-(4-(6-((6′-oxo-7′,8′-dihydro-6′H-spiro[cyclohexane-1,9′-pyrazino[1′,2′:1,5]pyrrolo[2,3-d]pyrimidin]-2′-yl)amino)pyridin-3-yl)piperazin-1-yl)acetamido)hexanamido)benzamide] | D (protein percentage degradation < 30%) | 
50 to 80 |  | Cc1nc(NC(=O)c2ccccc2NC(=O)CCCCCCNC(=O)CN2CCN(c3ccc(Nc4ncc5cc6n(c5n4)C4(CCCCC4)CNC6=O)nc3)CC2)sc1C [CPD-319, N-(4,5-Dimethylthiazol-2-yl)-2-(7-(2-(4-(6-((6′-oxo-7′,8′-dihydro-6′H-spiro[cyclohexane-1,9′-pyrazino[1′,2′:1,5]pyrrolo[2,3-d]pyrimidin]-2′-yl)amino)pyridin-3-yl)piperazin-1-yl)acetamido)heptanamido)benzamide] | A (protein percentage degradation >= 80%) | 
50 to 80 |  | Cc1nc(NC(=O)c2ccccc2NC(=O)CCCCCCCNC(=O)CN2CCN(c3ccc(Nc4ncc5cc6n(c5n4)C4(CCCCC4)CNC6=O)nc3)CC2)sc1C [CPD-320, N-(4,5-Dimethylthiazol-2-yl)-2-(8-(2-(4-(6-((6′-oxo-7′,8′-dihydro-6′H-spiro[cyclohexane-1,9′-pyrazino[1′,2′:1,5]pyrrolo[2,3-d]pyrimidin]-2′-yl)amino)pyridin-3-yl)piperazin-1-yl)acetamido)octanamido)benzamide] | A (protein percentage degradation >= 80%) | 
50 to 80 |  | Cc1nc(NC(=O)c2ccccc2NC(=O)CCCCCCCCNC(=O)CN2CCN(c3ccc(Nc4ncc5cc6n(c5n4)C4(CCCCC4)CNC6=O)nc3)CC2)sc1C [CPD-321, N-(4,5-Dimethylthiazol-2-yl)-2-(9-(2-(4-(6-((6′-oxo-7′,8′-dihydro-6′H-spiro[cyclohexane-1,9′-pyrazino[1′,2′:1,5]pyrrolo[2,3-d]pyrimidin]-2′-yl)amino)pyridin-3-yl)piperazin-1-yl)acetamido)nonanamido)benzamide] | A (protein percentage degradation >= 80%) | 
50 to 80 |  | Cc1nc(NC(=O)c2ccccc2NC(=O)CCOCCNC(=O)CN2CCN(c3ccc(Nc4ncc5cc6n(c5n4)C4(CCCCC4)CNC6=O)nc3)CC2)sc1C [CPD-322, N-(4,5-Dimethylthiazol-2-yl)-2-(3-(2-(2-(4-(6-((6′-oxo-7′,8′-dihydro-6′H-spiro[cyclohexane-1,9′-pyrazino[1′,2′:1,5]pyrrolo[2,3-d]pyrimidin]-2′-yl)amino)pyridin-3-yl)piperazin-1-yl)acetamido)ethoxy)propanamido)benzamide] | A (protein percentage degradation >= 80%) | 
50 to 80 |  | Cc1nc(NC(=O)c2ccccc2NC(=O)CCOCCOCCNC(=O)CN2CCN(c3ccc(Nc4ncc5cc6n(c5n4)C4(CCCCC4)CNC6=O)nc3)CC2)sc1C [CPD-323, N-(4,5-Dimethylthiazol-2-yl)-2-(3-(2-(2-(2-(4-(6-((6′-oxo-7′,8′-dihydro-6′H-spiro[cyclohexane-1,9′-pyrazino[1′,2′:1,5]pyrrolo[2,3-d]pyrimidin]-2′-yl)amino)pyridin-3-yl)piperazin-1-yl)acetamido)ethoxy)ethoxy)propanamido)benzamide] | A (protein percentage degradation >= 80%) | 
50 to 80 |  | Cc1nc(NC(=O)c2ccccc2NC(=O)CCOCCOCCOCCNC(=O)CN2CCN(c3ccc(Nc4ncc5cc6n(c5n4)C4(CCCCC4)CNC6=O)nc3)CC2)sc1C [CPD-324, N-(4,5-Dimethylthiazol-2-yl)-2-(2-oxo-1-(4-(6-((6′-oxo-7′,8′-dihydro-6′H-spiro[cyclohexane-1,9′-pyrazino[1′,2′:1,5]pyrrolo[2,3-d]pyrimidin]-2′-yl)amino)pyridin-3-yl)piperazin-1-yl)-6,9,12-trioxa-3-azapentadecan-15-amido)benzamide] | A (protein percentage degradation >= 80%) | 
50 to 80 |  | Cc1nc(NC(=O)c2ccccc2NC(=O)CCOCCOCCOCCOCCNC(=O)CN2CCN(c3ccc(Nc4ncc5cc6n(c5n4)C4(CCCCC4)CNC6=O)nc3)CC2)sc1C [CPD-325, N-(4,5-Dimethylthiazol-2-yl)-2-(2-oxo-1-(4-(6-((6′-oxo-7′,8′-dihydro-6′H-spiro[cyclohexane-1,9′-pyrazino[1′,2′:1,5]pyrrolo[2,3-d]pyrimidin]-2′-yl)amino)pyridin-3-yl)piperazin-1-yl)-6,9,12,15-tetraoxa-3-azaoctadecan-18-amido)benzamide] | A (protein percentage degradation >= 80%) | 
50 to 80 |  | Cc1nc(NC(=O)c2ccccc2NC(=O)CCOCCOCCOCCOCCOCCNC(=O)CN2CCN(c3ccc(Nc4ncc5cc6n(c5n4)C4(CCCCC4)CNC6=O)nc3)CC2)sc1C [CPD-326, N-(4,5-Dimethylthiazol-2-yl)-2-(2-oxo-1-(4-(6-((6′-oxo-7′,8′-dihydro-6′H-spiro[cyclohexane-1,9′-pyrazino[1′,2′:1,5]pyrrolo[2,3-d]pyrimidin]-2′-yl)amino)pyridin-3-yl)piperazin-1-yl)-6,9,12,15,18-pentaoxa-3-azahenicosan-21-amido)benzamide] | A (protein percentage degradation >= 80%) | 
50 to 80 |  | Cc1nc(NC(=O)c2ccccc2NC(=O)CCOCCOCCOCCOCCOCCOCCNC(=O)CN2CCN(c3ccc(Nc4ncc5cc6n(c5n4)C4(CCCCC4)CNC6=O)nc3)CC2)sc1C [CPD-327, N-(4,5-Dimethylthiazol-2-yl)-2-(2-oxo-1-(4-(6-((6′-oxo-7′,8′-dihydro-6′H-spiro[cyclohexane-1,9′-pyrazino[1′,2′:1,5]pyrrolo[2,3-d]pyrimidin]-2′-yl)amino)pyridin-3-yl)piperazin-1-yl)-6,9,12,15,18,21-hexaoxa-3-azatetracosan-24-amido)benzamide] | A (protein percentage degradation >= 80%) | 
 | < 30 | CC(=O)c1c(C)c2cnc(Nc3ccc(N4CCN(CC(=O)NCCCCCCCNc5cccc(C(=O)Nc6ccc(C)nc6)c5C)CC4)cn3)nc2n(C2CCCC2)c1=O [CPD-328, 3-((7-(2-(4-(6-((6-Acetyl-8-cyclopentyl-5-methyl-7-oxo-7,8-dihydropyrido[2,3-d]pyrimidin-2-yl)amino)pyridin-3-yl)piperazin-1-yl)acetamido)heptyl)amino)-2-methyl-N-(6-methylpyridin-3-yl)benzamide] |  | D (protein percentage degradation <30%)
 | > 80 | CC(=O)c1c(C)c2cnc(Nc3ccc(N4CCN(CC(=O)NCCCCCCCNc5cccc(C(=O)Nc6cc(C)n(C)n6)c5C)CC4)cn3)nc2n(C2CCCC2)c1=O [CPD-329, 3-((7-(2-(4-(6-((6-Acetyl-8-cyclopentyl-5-methyl-7-oxo-7,8-dihydropyrido[2,3-d]pyrimidin-2-yl)amino)pyridin-3-yl)piperazin-1-yl)acetamido)heptyl)amino)-N-(1,5-dimethyl-1H-pyrazol-3-yl)-2-methylbenzamide] |  | A (protein percentage degradation >=80%)
 | < 30 | CC(=O)c1c(C)c2cnc(Nc3ccc(N4CCN(CC(=O)NCCOCCOCCC(=O)Nc5cccc(Cl)c5C(=O)Nc5ccc(C)cn5)CC4)cn3)nc2n(C2CCCC2)c1=O [CPD-337] |  | D (protein percentage degradation <30%)
 | 50 to 80 | CC(=O)c1c(C)c2cnc(Nc3ccc(N4CCN(CC(=O)NCCCCCCCNc5nc(C)ccc5C(=O)Nc5nc(C)c(C)s5)CC4)cn3)nc2n(C2CCCC2)c1=O [CPD-338, 2-((7-(2-(4-(6-((6-Acetyl-8-cyclopentyl-5-methyl-7-oxo-7,8-dihydropyrido[2,3-d]pyrimidin-2-yl)amino)pyridin-3-yl)piperazin-1-yl)acetamido)heptyl)amino)-N-(4,5-dimethylthiazol-2-yl)-6-methylnicotinamide] |  | A (protein percentage degradation >=80%)
 | > 80 | CNc1ccc(C(=O)Nc2ccc(C)cn2)c(NC(=O)CCOCCOCCNC(=O)CN2CCN(c3ccc(Nc4ncc5c(C)c(C(C)=O)c(=O)n(C6CCCC6)c5n4)nc3)CC2)c1 [CPD-339, 2-(3-(2-(2-(2-(4-(6-((6-Acetyl-8-cyclopentyl-5-methyl-7-oxo-7,8-dihydropyrido[2,3-d]pyrimidin-2-yl)amino)pyridin-3-yl)piperazin-1-yl)acetamido)ethoxy)ethoxy)propanamido)-4-(methylamino)-N-(5-methylpyridin-2-yl)benzamide] |  | A (protein percentage degradation >=80%)
 | < 30 | CNC(=O)c1ccc(C)nc1NCCCCCCCNC(=O)CN1CCN(c2ccc(Nc3ncc4c(C)c(C(C)=O)c(=O)n(C5CCCC5)c4n3)nc2)CC1 [CPD-340] |  | D (protein percentage degradation <30%)
